Experiment [1] deals with NCI-H460. As to the kind of experiment: Cell cycle arrest in human NCI-H460 cells assessed as accumulation at G2/M phase at 1.5 uM measured after 6 to 24 hrs in the presence of RNase A by propidium iodide staining-based flow cytometry analysis. The experiment is classed as functional. Background: A flow cytometer gives signals particle by particle.
Experiment [2] is filed under the species Sus scrofa. Put plainly: Displacement of vincristine from vinca alkaloid binding site of pig brain tubulin up to 100 uM by LC-MS analysis.
In another experiment the test system is RAW264.7. As to the kind of experiment: Antiproliferative activity against mouse RAW264.7 cells after 18 hrs by CellTiter96 AQueous nonradioactive cell proliferation assay. The following applies: RAW264.7, 18 h. It counts as cell-based.
Experiment [3] relates to NCI-H460. Put plainly: Induction of apoptosis in human NCI-H460 cells upto 100 uM assessed as increase in caspase3/7 activity after 24 hrs by Caspase-Glo 3/7 assay relative to control. It counts as functional.
For the next experiment, the system named is Malme-3M. As to the kind of experiment: Antiproliferative activity against human MALME-3M cells after 48 hrs by SRB assay. The experiment is classed as functional, cell-based. In general terms: In SRB staining, fixed cells bind dye roughly in proportion to their protein.
The test system of the next experiment is A-375. Put plainly: Antiproliferative activity against human A375 cells after 72 hrs by CellTiter96 AQueous nonradioactive cell proliferation assay. It counts as functional, cell-based. The following applies: A-375, 72 h.
In a further experiment the test system is MDA-MB-435. Put plainly: Antiproliferative activity against human MDA-MB-435 cells after SRB assay. It counts as functional, cell-based.
A further experiment relates to SF-295. Put plainly: Antiproliferative activity against human SF295 cells after 72 hrs by CellTiter96 AQueous nonradioactive cell proliferation assay. The following applies: SF-295, 72 h. It counts as functional, cell-based.
Another experiment has as its system SK-MEL-2. As to the kind of experiment: Antiproliferative activity against human SK-MEL-2 cells after 72 hrs by CellTiter96 AQueous nonradioactive cell proliferation assay. It counts as functional, cell-based. The following applies: SK-MEL-2, 72 h.
The next experiment deals with PC-3. As to the kind of experiment: Antiproliferative activity against human PC3 cells after 72 hrs by CellTiter96 AQueous nonradioactive cell proliferation assay. The experiment is classed as functional, cell-based. The following applies: PC-3, 72 h.
Another experiment relates to UACC-62. As to the kind of experiment: Antiproliferative activity against human UACC62 cells after 72 hrs by CellTiter96 AQueous nonradioactive cell proliferation assay. The experiment is classed as functional, cell-based. The following applies: UACC-62, 72 h.
Experiment [4] is described as follows: Antiproliferative activity against human NCI60 cells after 48 hrs by SRB assay. The experiment is classed as functional, cell-based. The following applies: NCI60, 48 h.
For a further experiment, the system named is HCC 2998. Put plainly: Antiproliferative activity against human HCC2998 cells after 48 hrs by SRB assay. It counts as functional, cell-based. The following applies: HCC 2998, 48 h.
Experiment [5] has as its system NCI-H460. Put plainly: Induction of necrosis in human NCI-H460 cells upto 100 uM assessed as increase in LDH levels after 24 hrs by CytoTox 96 nonradioactive cytotoxicity assay. It counts as functional, cell-based.
The next experiment deals with SR. Put plainly: Antiproliferative activity against human SR cells after 48 hrs by SRB assay. The experiment is classed as functional, cell-based.
Experiment [6] concerns NCI-H460. As to the kind of experiment: Antiproliferative activity against human NCI-H460 cells after 72 hrs by CellTiter96 AQueous nonradioactive cell proliferation assay. The experiment is classed as functional, cell-based. The following applies: NCI-H460, 72 h.
Another experiment has as its system NCI/ADR-RES. As to the kind of experiment: Antiproliferative activity against human NCI-ADR-RES cells after 48 hrs by SRB assay. The experiment is classed as functional, cell-based.
Another experiment has as its system ACHN. As to the kind of experiment: Antiproliferative activity against human ACHN cells after 72 hrs by CellTiter96 AQueous nonradioactive cell proliferation assay. The experiment is classed as functional, cell-based.
The species entered for experiment [7] is Sus scrofa. As to the kind of experiment: Inhibition of pig brain tubulin polymerization measured every 1 min for 60 mins.
The species named for experiment [8] is Sus scrofa. Put plainly: Displacement of colchicine from colchicine-binding site of pig brain tubulin up to 100 uM by LC-MS analysis.
In a further experiment the test system is M14. Put plainly: Antiproliferative activity against human M14 cells after 72 hrs by CellTiter96 AQueous nonradioactive cell proliferation assay. It counts as functional, cell-based. The following applies: M14, 72 h.

pIC50: −log10 of the molar value. Calls of active or inactive are those of the source. No cut-off for these calls is given here.

A word on the pIC50: it is the negative decadic logarithm of the IC50, by convention in mol/L.

Consider `C=CC[C@H]1C[C@]2([C@@H](C)Cc3ccc(OC)c(OC)c3)OCOC2=CC1=O`, for which the result in the experiment with NCI-H460 [1] and with NCI-H460 [5] was Active. The inhibition result in the experiment listed under Sus scrofa [2] is “inactive”. The pIC50 in the experiment with RAW264.7 is less than 5.30; in the experiment with Malme-3M it was more than 7.00; in the experiment with A-375 it was 7.12; with MDA-MB-435 it was more than 7.00; in the experiment on SF-295 it was 6.60; in the experiment with SK-MEL-2, 7.02. For the same molecule, the pIC50 with PC-3 was 6.31; in the experiment on UACC-62, 7.36; in experiment [4], 6.57; with HCC 2998 it was 5.85; in the experiment on SR, more than 7.00; in the experiment with NCI-H460 [6] it was 6.59. Also, the pIC50 with NCI/ADR-RES was 6.77; in the experiment with ACHN it was 6.44; with M14, 7.19. Also, in the experiment with NCI-H460 [3], the “fold change (FC)” value is 2.5. In addition, the inhibition entry in the experiment listed under Sus scrofa [7] is “Dose-dependent effect”. Besides, the inhibition result in the experiment listed under Sus scrofa [8] is “Active”.
Consider `CC(=O)O[C@H]1C(=O)[C@@]2(C)[C@H]([C@H](OC(=O)c3ccccc3)[C@]3(O)C[C@H](OC(=O)[C@H](O)[C@@H](NC(=O)c4ccccc4)c4ccccc4)C(C)=C1C3(C)C)[C@]1(OC(C)=O)CO[C@@H]1C[C@@H]2O` [PACLITAXEL], for which the pIC50 is less than 5.30 with RAW264.7; 8.00 with A-375; 7.25 in the experiment on SF-295; 8.05 with SK-MEL-2; 8.40 with PC-3; 8.22 with UACC-62. In addition, the pIC50 in the experiment with NCI-H460 [6] is 8.00; with NCI/ADR-RES, less than 5.00; with ACHN it was 7.18; in the experiment with M14, 8.15.
